Results published in patent publication US20030143586A1, “Genetic hypermutability of plants for gene discovery and diagnosis” (priority 2001, published 2003).

Assays:
[1] = system: Conyza canadensis field populations; conditions: cited from earlier work
[2] = system: horseweed (Conyza canadensis); test: Glyphosate applied to horseweed plants to confirm sensitivity to the herbicide; type: in vivo
Experimental: Isolation and modification of the genomic DNA: Total horseweed (Conyza Canadensis) genomic DNA was isolated from 100 mg of leaves using Plant DNAZol as described by the manufacturer (Invitrogen). The typical yield was 10-20 μg DNA per preparation. Two different biotypes of horseweed were used as source of the DNA and were designated HR and HS.
Analysis of the DNA Marker: Horseweeds were either germinated from seeds or seedlings were transferred from the field into the greenhouse. DNAs from the genomes of HR and HS horseweeds were isolated. At the same time, glyphosate was applied at 2 lb active ingredient/acre rate to confirm the plants' sensitivity to the herbicide.

For `O=C(O)CNCP(=O)(O)O` [Glyphosate, glyphosate], the “field populations naturally resistant to glyphosate” value [1] is given as “approximately 15%”, the “response to glyphosate treatment” value ([2]; horseweed biotype designated HR (DNA source, Example 4)) is given as “tolerance” and the “response to glyphosate treatment” value ([2]; horseweed biotype designated HS (DNA source, Example 4)) is given as “sensitive”.
